The text below walks through data of article PMC8765320, “Identification of a Proteasome-Targeting Arylsulfonamide with Potential for the Treatment of Chagas’ Disease” (Antimicrobial Agents and Chemotherapy, 2022).

Where two headings read alike, the source gives them in different places. Some results are limits rather than exact numbers.

Assay [1] deals with ubiquitinated proteins in T. cruzi epimastigotes. Kind of assay: Accumulation of ubiquitinated proteins in treated epimastigotes (LC-MS/MS). The assay is classed as cell-based, Trypanosoma cruzi. The conditions noted are these: epimastigotes pretreated 8 h at 3× EC50 (methods: 8× EC50); one biological replicate. The procedure:
In cells where the function of the proteasome has been compromised, there is a concomitant build-up of ubiquitinated proteins earmarked for degradation. […] Control cultures were treated for the same period of time in the presence of dimethyl sulfoxide (DMSO). Enrichment of ubiquitinated proteins was achieved by immunoprecipitation using magnetic beads conjugated to an antibody specific for the remnant of ubiquitinated lysines following digestion with trypsin and/or LysC. We used liquid chromatography-tandem mass spectrometry (LC-MS/MS) to calculate the ubiquitination ratio of each sample by dividing the reporter intensity of ubiquitinated proteins by the reporter intensity of total protein (see Table S8). As expected, the accumulation of ubiquitinylated proteins was highest in epimastigotes treated with bortezomib (2.7-fold higher than in the DMSO-treated control), which is known to inhibit all three catalytic activities of the proteasome (Fig. 3). […] Similarly, ubiquitinated proteins accumulated to levels 1.9-fold higher in compound 1-treated parasites compared to those recovered from DMSO-treated control cells.
Controls were incubated in the presence of diluent (DMSO). Cells were harvested by centrifugation (1,912 × g, 15 min, 4°C) and washed with ice-cold PBS (1,912 × g, 5 min, 4°C); finally, the cell pellets were resuspended in 1.5 ml of ice-cold lysis buffer (1 mM EDTA, 1 mM DTT, 100 μM TLCK, and 1× Roche EDTA-free cOmplete protease inhibitor cocktail in 50 mM potassium phosphate buffer [pH 7.4]). Cell suspensions were submitted to three freeze-thaw cycles in a dry ice/ethanol bath to biologically inactivate the parasites and then lysed using a OneShot cell disruptor (Constant Systems) at 30 kpsi.
Cell lysates were centrifuged (100,000 × g, 20 min, 4°C), supernatants were collected, and the protein concentrations were determined by using a standard Bio-Rad protein assay. […]

A further assay relates to T. cruzi epimastigotes. Description: T. cruzi epimastigote drug sensitivity assay (resazurin). Format: cell-based, Trypanosoma cruzi. The conditions noted are these: for EC50: Trypanosoma cruzi; for susceptibility of CRISPR-edited epimastigotes: β4 F24L and I29M, at all of the concentrations tested. The method, then:
To examine the effects of test compounds on the growth of T. cruzi epimastigotes, mid-log-phase parasites were seeded into 96-well plates at a cell density of 5 × 10^5 cells ml^−1. Cells were exposed to test compounds over a range of concentrations (2-fold serial dilutions). Cells were incubated for 4 days, and then 20 μl of 2.5 mM resazurin was added to each well, before measuring the fluorescence (excitation, 528 nm; emission, 590 nm), following a further 24 h of incubation. […] In this equation, [I] represents the inhibitor concentration, and m is the slope factor. Experiments were repeated at least two times, and the data are presented as means plus the standard deviations.

Assay [2] deals with T. cruzi amastigotes within Vero cells. Description: Drug sensitivity assay against T. cruzi-infected Vero cells (intracellular amastigotes). The assay is classed as cell-based, Trypanosoma cruzi. The settings on record: for EC50: Trypanosoma cruzi, Vero. The method, then:
The clonal Leishmania donovani cell line LdBOB (derived from MHOM/SD/62/1S-CL2D) was grown as either promastigotes or axenic amastigotes in media specific for each developmental stage, as previously described ([32]). T. cruzi epimastigotes from the Silvio strain (MHOM/BR/78/Silvio; clone X10/7A [33]) were grown at 28°C in RTH/FBS (RPMI 1640 medium supplemented with Trypticase, hemin, HEPES, and 10% heat-inactivated fetal calf serum (FCS) [Fisher Scientific]) ([34]). Bloodstream form T. brucei “single marker” S427 (T7RPOL TETR NEO) were cultured in the presence of G418 (15 μg ml^−1) at 37°C in HMI9-T media in the presence of 5% CO2. HepG2 cells (ECACC 85011430) were obtained from European Collection of Authenticated Cell Culture (ECACC). Cells were maintained in full growth medium (minimal essential medium [MEM] with GlutaMAX (Thermo Fisher), supplemented with 1% MEM nonessential amino acids (Sigma) and 10% heat-inactivated FBS and cultured at 37°C in the presence of 5% CO2. Cells were passaged twice weekly by detaching adherent cells with 0.05% trypsin/EDTA (Sigma) and diluted into fresh media. Cells were never grown beyond 80% confluence. Vero cells (African green monkey kidney cells; ECCAC 84113001) were maintained at 37°C, 5% CO2 in Dulbecco modified Eagle medium (DMEM; Lonza) supplemented with 10% FCS and subcultured every 2 days. T. cruzi metacyclic trypomastigotes were obtained from late-log-phase epimastigote cultures (initial inoculum, 10^6 ml^−1) after ca. 7 to 10 days at 28°C in RTH/FBS. Trypomastigote-rich cultures were incubated with Vero cells overnight at 37°C and 5% CO2 in DMEM/10% FCS. The following day, extracellular parasites were removed by washing the Vero cell monolayer three times. Infected monolayers were maintained at 37°C and in 5% CO2, DMEM/10% FCS was replaced every 48 h until the trypomastigotes reemerged from the Vero cells ([9]).
Drug sensitivity assays against T. cruzi-infected Vero cells were carried out as previously described ([37]); however, in this instance, assays were carried out in 96-well plates. Data were processed using GRAFIT (Erithacus software) and fitted to a two-parameter equation, as described above.

In the next assay the test system is T. cruzi. The settings on record: cited from earlier work.
The test system of the next assay is Chagas' disease. The settings on record: in vivo; cited from earlier work.
Setting [3] is: read-out: Mean EC50 ± SD, cell line RES II (compound 1-resistant, β5 D225N).
[4] abbreviates: read-out: Mean EC50 ± SD, cell line RES IV (compound 1-resistant, no proteasome mutation).
The mark [5] stands for this setting: cell line Wild type, read-out: Mean EC50 ± SD.
Where [6] appears, read: read-out: Mean EC50 ± SD, cell line RES I (compound 1-resistant, β5 D225N).
[7] abbreviates: read-out: Mean EC50 ± SD, cell line RES III (compound 1-resistant, β5 D225N).
The mark [8] stands for this setting: read-out: Mean EC50 ± SD, cell line RES V (compound 1-resistant, β4 I27T).
Where [9] appears, read: read-out: Mean EC50 ± SD, cell line Res I-β5 OE (β5 WT overexpressed in RES I).
[10] abbreviates: read-out: Mean EC50 ± SD, cell line β4 F24L/I29M (CRISPR-edited).
[11] abbreviates: read-out: Mean EC50 ± SD, cell line β5 D225N-OE (overexpressing mutated β5).
Where [12] appears, read: in Vero cells, cell line RES 1, read-out: EC50 values.
The mark [13] stands for this setting: in Vero cells, cell line RES 5, read-out: EC50 values.
The mark [14] stands for this setting: in Vero cells, cell line Wild-type, read-out: EC50 values.
Where [15] appears, read: read-out: EC50 values, in Vero cells, cell line β4 F24L/I29M.

With `CC(C)C[C@H](NC(=O)[C@H](Cc1ccccc1)NC(=O)c1cnccn1)B(O)O` [Bortezomib, bortezomib], in assay [1], the “accumulation of ubiquitinated proteins versus DMSO-treated control” value was 2.7 fold. The EC50 with T. cruzi epimastigotes (setting [3]) amounted to 0.3 ± 0.01 µM; in the assay with T. cruzi epimastigotes (setting [4]), 0.6 ± 0.05 µM; in the assay with T. cruzi epimastigotes (read-out: Mean EC50 ± SD, cell line Wild type), 0.2 ± 0.004 µM. The “fold change versus the WT” value with T. cruzi epimastigotes (cell line RES I) was 1 fold; with T. cruzi epimastigotes (cell line RES II) it was 1 fold; with T. cruzi epimastigotes (cell line RES III) it was 1 fold; in the assay with T. cruzi epimastigotes (cell line RES IV), 2.5 fold; with T. cruzi epimastigotes (cell line RES V), 1 fold; in the assay with T. cruzi epimastigotes (cell line Res I-β5 OE), 1 fold. Also, the “fold change versus the WT” value in the assay on T. cruzi epimastigotes (cell line β4 F24L/I29M) and with T. cruzi epimastigotes (cell line β5 D225N-OE) was 1 fold each time. In addition, the “cross-resistance against RES I to V clones” value in the assay with T. cruzi epimastigotes (compound 1-resistant clones RES I to V) is “no evidence of cross-resistance”.
As to `O=C(Nc1ccc(F)c(-c2cn3nc(-c4ccccc4)cnc3n2)c1)N1CCCC1` [Compound 2], the EC50 in the assay on T. cruzi epimastigotes (setting [5]) is 0.04 ± 0.001 µM; in the assay on T. cruzi epimastigotes (setting [6]), 4 ± 0.08 µM; with T. cruzi epimastigotes (setting [3]) it was 5 ± 0.2 µM; in the assay with T. cruzi epimastigotes (setting [7]), 5 ± 0.4 µM; with T. cruzi epimastigotes (setting [4]), 0.1 ± 0.01 µM; in the assay with T. cruzi epimastigotes (setting [8]), 0.8 ± 0.03 µM. For the same molecule, the EC50 with T. cruzi epimastigotes (setting [9]) is 0.3 ± 0.01 µM; with T. cruzi epimastigotes (setting [10]) it was > 10 µM; with T. cruzi epimastigotes (setting [11]) it was 2 ± 0.1 µM. Moreover, the “fold change versus the WT” value in the assay with T. cruzi epimastigotes (cell line RES I) is reported as 100 fold; with T. cruzi epimastigotes (cell line RES II), 125 fold; with T. cruzi epimastigotes (cell line RES III), 125 fold; with T. cruzi epimastigotes (cell line RES IV) it was 2.5 fold; in the assay with T. cruzi epimastigotes (cell line RES V), 20 fold; in the assay with T. cruzi epimastigotes (cell line Res I-β5 OE) it was 6.5 fold. Besides, the “fold change versus the WT” value is > 250 fold with T. cruzi epimastigotes (cell line β4 F24L/I29M) and 58 fold with T. cruzi epimastigotes (cell line β5 D225N-OE). The “susceptibility of CRISPR-edited epimastigotes” value with T. cruzi epimastigotes was “refractory”.
`CSc1ccc(OCc2ncc([N+](=O)[O-])n2C)cc1` [Fexinidazole, fexinidazole]: the EC50 stood at 5 ± 1 µM in assay [2] (in Vero cells, cell line ME OE, (*) one biological replicate, read-out: EC50 values); 8 ± 1 µM in assay [2] (setting [12]); 4 ± 0.7 µM in assay [2] (setting [13]); 4 ± 0.8 µM in assay [2] (setting [14]); 4 ± 0.6 µM in assay [2] (in Vero cells, cell line β5 OE rescue R1, (*) one biological replicate, read-out: EC50 values); 6 ± 0.6 µM in assay [2] (setting [15]). The EC50 in assay [2] (read-out: EC50 values, in Vero cells, cell line β5 OE) amounted to 3 ± 0.3 µM. Besides, the “fold change versus WT” value is reported as 1 fold in assay [2] (in Vero cells, cell line ME OE); 2 fold in assay [2] (in Vero cells, cell line RES 1); 1 fold in assay [2] (in Vero cells, cell line RES 5); 1 fold in assay [2] (in Vero cells, cell line Wild-type); 2 fold in assay [2] (in Vero cells, cell line β4 F24L/I29M); 1 fold in assay [2] (in Vero cells, cell line β5 D225N-OE). Besides, the “fold change versus WT” value was determined as 1 fold in assay [2] (in Vero cells, cell line β5 OE) and 1 fold in assay [2] (in Vero cells, cell line β5 OE rescue R1).
As to `Cc1nc(C)c(C(=O)Nc2ccc(F)c(-c3nc4ncc(-c5ccccn5)cn4n3)c2)o1` [GNF6702], in the assay with T. cruzi (10 mg kg−1 twice daily, after 4 weeks of immunosuppression), the “treated mice with no detectable parasites in blood, colon, or heart tissue” value is reported as “All but one of the eight”. Besides, the “efficacy in a mouse model of infection” value in the assay with T. cruzi (dosed twice daily at 10 mg kg−1) was “matched the efficacy of benznidazole”. For the same molecule, the “accumulation of ubiquitinated proteins versus DMSO-treated control” value in assay [1] is reported as 1.45 fold. For the same molecule, the EC50 in assay [2] (setting [12]) is 16 ± 3 µM; in assay [2] (setting [13]), 3 ± 0.4 µM; in assay [2] (setting [14]), 0.2 ± 0.03 µM; in assay [2] (in Vero cells, cell line β5 OE, read-out: EC50 values), 0.2 ± 0.1 µM; in assay [2] (setting [15]), > 1.5 µM; in assay [2] (read-out: EC50 values, in Vero cells, cell line β5 D225N-OE, (*) one biological replicate), > 5 µM. Also, the EC50 in the assay on T. cruzi epimastigotes (setting [5]) is 0.3 ± 0.02 µM; in the assay on T. cruzi epimastigotes (setting [6]), > 10 µM; with T. cruzi epimastigotes (setting [3]), > 10 µM; in the assay on T. cruzi epimastigotes (setting [7]), > 10 µM; in the assay with T. cruzi epimastigotes (setting [4]) it was > 10 µM; with T. cruzi epimastigotes (setting [8]), 10 ± 0.2 µM. The values for the EC50 in the assay with T. cruzi epimastigotes (setting [9]), in the assay with T. cruzi epimastigotes (setting [10]) and in the assay on T. cruzi epimastigotes (setting [11]) were 2 ± 0.3 µM, > 10 µM and > 10 µM, respectively. Further, the “susceptibility of CRISPR-edited epimastigotes” value in the assay on T. cruzi epimastigotes is “refractory”.
For `CC1CS(=O)(=O)CCN1/N=C/c1ccc([N+](=O)[O-])o1` (stereo not drawn) [nifurtimox], the individuals cured entry with Chagas' disease is reported as “up to 70%”.
